Test [1] has as its target Dopamine receptors; D2 & D4 (Homo sapiens, UniProt P14416+P21917). In words: Binding affinity to human D2/D4 receptor assessed as inhibition constant. The class given is protein assay.
For a further test, the target named is D(4) dopamine receptor (Homo sapiens, UniProt P21917). In words: Binding affinity to D4 receptor (unknown origin) assessed as inhibition constant.
Test [2] relates to MCF7. Briefly: Antiproliferative activity against human MCF7 cells assessed as inhibition of cell proliferation measured after 96 hrs by SRB assay. The note with it: MCF7, 96 h. The class given is functional, cell-based.
A further test concerns Salmonella enterica. Briefly: Antibacterial activity against Salmonella enterica assessed as bacterial growth inhibition by broth dilution method. In kind it is functional. (In general: Dilution methods test growth across graded concentrations, often in twofold steps.)
Test [3] is described as follows: Cytotoxicity against human HCC-S102 cells assessed as reduction in cell viability. The class given is functional, cell-based.
Another test concerns Pseudomonas aeruginosa. Briefly: Antibacterial activity against Pseudomonas aeruginosa assessed as zone of inhibition at 20 mg/ml. The class given is functional. As to conditions: read-out: IZ.
For test [4], the system named is Escherichia coli. In words: Antibacterial activity against Escherichia coli assessed as zone of inhibition at 20 mg/ml. As to conditions: read-out: IZ. The class given is functional.
In test [5] the test system is Geotrichum candidum. Briefly: Antifungal activity against Geotrichum candidum assessed as zone of inhibition at 20 mg/ml. In kind it is functional. As to conditions: read-out: IZ.
Test [6] has as its system Candida albicans. In words: Antifungal activity against Candida albicans assessed as zone of inhibition at 20 mg/ml. The class given is functional. As to conditions: read-out: IZ.
In another test the test system is Serratia marcescens. In words: Antibacterial activity against Serratia marcescens assessed as zone of inhibition at 20 mg/ml. In kind it is functional. As to conditions: read-out: IZ.
Another test deals with Bacillus cereus. Briefly: Antibacterial activity against Bacillus cereus assessed as zone of inhibition at 20 mg/ml. In kind it is functional. As to conditions: read-out: IZ.
For the next test, the system named is Staphylococcus aureus. In words: Antibacterial activity against Staphylococcus aureus assessed as zone of inhibition at 20 mg/ml. The note with it: read-out: IZ. In kind it is functional.
A further test concerns Trichophyton rubrum. In words: Antifungal activity against Trichophyton rubrum assessed as zone of inhibition at 20 mg/ml. In kind it is functional. The note with it: read-out: IZ.
Another test concerns Aspergillus flavus. In words: Antifungal activity against Aspergillus flavus assessed as zone of inhibition at 20 mg/ml. As to conditions: read-out: IZ. The class given is functional.
Test [7] deals with Fusarium oxysporum. Briefly: Antifungal activity against Fusarium oxysporum assessed as zone of inhibition at 20 mg/ml. In kind it is functional. As to conditions: read-out: IZ.
The test system of test [8] is Geotrichum candidum. In words: Antimicrobial activity against Geotrichum candidum assessed as zone of inhibition at 50 uM. In kind it is functional. As to conditions: read-out: IZ.
For another test, the system named is Scopulariopsis. In words: Antifungal activity against Scopulariopsis assessed as zone of inhibition at 20 mg/ml. The class given is functional. The note with it: read-out: IZ.
Another test concerns Micrococcus luteus. Briefly: Antibacterial activity against Micrococcus luteus assessed as zone of inhibition at 20 mg/ml. In kind it is functional. The note with it: read-out: IZ.
The target in test [9] is Dual specificity tyrosine-phosphorylation-regulated kinase 1A (Homo sapiens, UniProt Q13627). In words: Inhibition of DYRK1A (unknown origin).
For another test, the system named is Colletotrichum camelliae. In words: Antifungal activity against Colletotrichum camelliae. In kind it is functional, organism-based.
The subject of test [10] is Botrytis cinerea. Briefly: Antifungal activity against Botrytis cinerea assessed as inhibition of fungal growth incubated for 24 hrs by standard broth dilution assay. In kind it is functional, organism-based.
Test [11] concerns Botrytis cinerea. In words: Antifungal activity against Botrytis cinerea. In kind it is functional, organism-based.
Test [12] concerns MCF7. In words: Inhibition of CKII in human MCF7 cells at 50 uM assessed as inhibition. The class given is cell-based.
Another test deals with HCT-116. Briefly: Inhibition of CKII in human HCT-116 cells at 50 uM assessed as inhibition. In kind it is cell-based.
Another test has as its system H69AR. Briefly: Cytotoxicity against human NCI-H69AR cells assessed as reduction in cell viability by SRB assay. The class given is functional, cell-based. (In general: The SRB assay estimates cell density from bound dye.)
The test system of another test is HuCC-A1. In words: Antiproliferative activity against human HuCC-A1 cells assessed as reduction in cell proliferation. The class given is functional, cell-based.
The subject of test [13] is Fusarium oxysporum. In words: Antifungal activity against Fusarium oxysporum assessed as zone of inhibition at 50 uM. In kind it is functional. As to conditions: read-out: IZ.
A further test has as its system HepG2. Briefly: Anticancer activity against human HepG2 cells by MTT assay. In kind it is functional, cell-based. Background: Formazan colour is commonly taken as a measure of viable cells.
For test [14], the system named is Candida albicans. Briefly: […] activity against Candida albicans assessed as zone of inhibition at 20 mg/ml. The class given is functional. As to conditions: read-out: IZ.
A further test has as its system HeLa. Briefly: Antiproliferative activity against human HeLa cells assessed as reduction in cell proliferation. The class given is functional, cell-based.
A short description of test [15]: Antioxidant activity assessed as FRAP radical activity by FRAP assay. The class given is functional.
The subject of test [16] is Staphylococcus epidermidis. In words: Antibacterial activity against Staphylococcus epidermidis assessed as reduction in bacterial growth. The class given is functional.
Test [17] relates to Escherichia coli. Briefly: Antibacterial activity against Escherichia coli assessed as bacterial growth inhibition. In kind it is functional.
A short description of test [18]: Antioxidant activity assessed as DPPH radical scavenging activity. In kind it is functional.
The subject of test [19] is MCF7. Briefly: Anticancer activity against human MCF7 cells assessed as inhibition of cell proliferation measured after 48 hrs by MTT assay. In kind it is functional, cell-based. As to conditions: MCF7, 48 h.

pEC50, pIC50, pKi: −log10 of the molar value. Converted amounts (≈) assume the structure as drawn.

Sequence of D(4) dopamine receptor (P21917 whole entry): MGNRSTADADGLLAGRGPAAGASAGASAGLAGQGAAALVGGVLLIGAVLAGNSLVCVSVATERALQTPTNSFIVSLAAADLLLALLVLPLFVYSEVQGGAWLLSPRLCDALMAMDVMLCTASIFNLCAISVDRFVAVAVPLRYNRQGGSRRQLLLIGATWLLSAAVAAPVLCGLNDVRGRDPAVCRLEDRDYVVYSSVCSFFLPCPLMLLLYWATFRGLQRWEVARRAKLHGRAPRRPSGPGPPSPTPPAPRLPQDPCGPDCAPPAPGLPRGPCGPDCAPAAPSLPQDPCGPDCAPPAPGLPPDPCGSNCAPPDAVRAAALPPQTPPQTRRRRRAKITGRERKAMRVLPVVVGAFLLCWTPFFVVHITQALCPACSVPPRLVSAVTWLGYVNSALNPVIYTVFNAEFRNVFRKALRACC

As for `COc1ccc2c3c(c(=O)oc2c1)CN(Cc1ccncc1)CC3`, in [1], the Ki – broadly, the dissociation constant of the complex between target and ligand, obtained from inhibition or displacement – was determined as 0.078 µM. In addition, the pKi – broadly, −log10 of the Ki, conventionally taken in molar units – on D(4) dopamine receptor was 8.82.

As to `O=c1oc2ccccc2c2[se]c(CN3CCOCC3)c(Nc3ccncc3)c12`, in the test with MCF7 [2], the negative logarithm of the IC50 (pIC50) – broadly, the negative decadic logarithm of the IC50, by convention in mol/L – is 4.74.

For `CCc1c(C)c(=O)oc2c1c(=O)oc1ccccc12`, the MIC (as a rule, the lowest concentration found to suppress growth) in the test with Salmonella enterica was 50 µM (≈ 12.8 µg/mL).

Take `COc1cc(-c2c3c4cc(OC)c(O)cc4oc(=O)c3n3ccc4cc(O)c(OC)cc4c23)ccc1O` [LAMELLARIN D]: the pIC50 in [3] is 5.49.

`CCOC(=O)c1sc2c(c1NC(=O)CNc1ccc(S(N)(=O)=O)cc1)c(=O)oc1ccccc12`: the zone of inhibition at 20000 µg/mL turned out to be 0 mm in the test with Pseudomonas aeruginosa; 9 mm in the test with Escherichia coli [4]; 10 mm with Geotrichum candidum [5]; 0 mm with Candida albicans [6]; 0 mm with Serratia marcescens; 0 mm in the test on Bacillus cereus. Besides, the zone of inhibition at 20000 µg/mL with Staphylococcus aureus was found to be 9 mm; in the test with Trichophyton rubrum, 0 mm; in the test on Aspergillus flavus, 0 mm; with Fusarium oxysporum [7], 0 mm; in the test on Scopulariopsis, 0 mm; with Micrococcus luteus, 0 mm. Further, the zone of inhibition at 50 µM in the test with Geotrichum candidum [8] amounted to 10 mm.

Take `O=c1oc2cc(O)ccc2c2c1[nH]c1ccc(O)cc12`: the pIC50 in test [9] was 9.52.

For `Cc1oc2c(c1C)c(=O)oc1cc(OC(C)C)ccc12`, the concentration giving a half-maximal response (EC50) – broadly, the midpoint of the concentration-response curve – stood at 6.02 µg/mL (≈ 22.1 µM) with Colletotrichum camelliae and 1.72 µg/mL (≈ 6.32 µM) in the test with Botrytis cinerea [11]. Besides, the pEC50 (commonly the EC50 on a negative log10 scale, so that one unit is a factor of ten) with Botrytis cinerea [10] was 5.76.

Turning to `O=c1oc2cc(O)ccc2c2oc3cc(O)ccc3c12`, the inhibition (as a rule, the change of the read-out against control, counted positive when it falls) in the test with MCF7 [12] amounted to 50%; in the test with HCT-116, 30%.

For `COc1cc(-c2c3n(c4c(=O)oc5cc(O)c(OC)cc5c24)CCc2c-3cc(OC)c(OC)c2O)ccc1O`, the pIC50 in the test on H69AR was 5.37; in the test on HuCC-A1, 5.47.

As for `CCOC(=O)c1sc2c(c1N)c(=O)oc1ccccc12`, the zone of inhibition at 20000 µg/mL is 10 mm in the test with Pseudomonas aeruginosa; 0 mm in the test on Escherichia coli [4]; 0 mm with Geotrichum candidum [5]; 13 mm with Candida albicans [6]; 8 mm in the test with Serratia marcescens; 0 mm in the test on Bacillus cereus. Also, the zone of inhibition at 20000 µg/mL with Staphylococcus aureus amounted to 9 mm; in the test with Trichophyton rubrum it was 0 mm; in the test with Aspergillus flavus, 0 mm; in the test with Fusarium oxysporum [7], 0 mm; with Scopulariopsis, 8 mm; in the test on Micrococcus luteus, 8 mm. Besides, the zone of inhibition at 50 µM in the test with Fusarium oxysporum [13] was determined as 16 mm.

In the case of `O=c1oc2ccccc2c2c1C(c1ccc(Br)cc1O)SCCN2` (stereo in doubt; 200), the pIC50 in the test with HepG2 is 4.24.

Take `Nc1cc(=O)[nH]c2c3c(=O)oc4ccccc4c3nn12`: the zone of inhibition at 20000 µg/mL in the test with Candida albicans [14] was determined as 10 mm.

As to `O=C(NO)c1cc2c(=O)oc3ccccc3c2s1`, the pIC50 with HeLa was 5.05.

`CCOC(=O)c1nnc2c3c(=O)oc4ccccc4c3nn2c1N`: the zone of inhibition at 20000 µg/mL with Candida albicans [14] amounted to 10 mm.

On to `O=c1c(O)c(-c2ccc(O)c(O)c2)oc2cc(O)cc(O)c12` [QUERCETIN], for which the negative-log IC50 (pIC50) in test [15] was 1.27.

With `COc1cc([C@@H]2c3cc4c(cc3[C@@H](O[C@@H]3O[C@@H]5CO[C@@H](C)O[C@H]5[C@H](O)[C@H]3O)[C@H]3COC(=O)[C@H]23)OCO4)cc(OC)c1O` [ETOPOSIDE], the pIC50 is 4.34 with H69AR and 5.17 in the test with HuCC-A1.

On to `COc1cccc2c1OC(=O)C1C(C)=Nc3[nH]n(-c4cc(Cl)ccc4Cl)c(=O)c3C21` (stereo not given), for which, in [16], the MIC amounted to 25 µM (≈ 11.1 µg/mL).

Regarding `Cc1cccc2c1oc(=O)c1cc(NC(=O)c3ccccc3)c(=O)oc12`, the minimal inhibitory concentration (MIC) in the test on Escherichia coli [17] came to 105 µM (≈ 36.5 µg/mL).

Turning to `O=c1oc2ccccc2c2[se]c(CN3CCOCC3)c(Nc3cccnc3)c12`, the negative logarithm of the IC50 (pIC50) in [18] is 5.40; in the test with MCF7 [19], 4.39.

These data come from ChEMBL document CHEMBL5230136, “A review: Biologically active 3,4-heterocycle-fused coumarins” (Eur J Med Chem, 2021).
